Numbers after ± are expanded uncertainties.
Conditions: 101.33 kPa, Liquid; for viscosity: Concentric cylinders viscometry; for mass density: Vibrating tube method

| Structure (SMILES) | viscosity (283.15 K) | mass density (283.15 K) | viscosity (288.15 K) | mass density (288.15 K) | viscosity (293.15 K) | mass density (293.15 K) | viscosity (298.15 K) | mass density (298.15 K) | viscosity (303.15 K) | mass density (303.15 K) | viscosity (308.15 K) | mass density (308.15 K) | viscosity (313.15 K) | mass density (313.15 K) | viscosity (318.15 K) | mass density (318.15 K) | viscosity (323.15 K) | mass density (323.15 K) | viscosity (328.15 K) | mass density (328.15 K) | further results |
| --- | --- | --- | --- | --- | --- | --- | --- | --- | --- | --- | --- | --- | --- | --- | --- | --- | --- | --- | --- | --- | --- |
| CCCCCCCC/C=C\CCCCCCCC(=O)OCC [ethyl (Z)-9-octadeceneoate] | 8.839 ± 0.11 mPa·s | 876.9 ± 1.2 kg/m3 | 7.595 ± 0.096 mPa·s | 873.2 ± 1.2 kg/m3 | 6.591 ± 0.084 mPa·s | 869.5 ± 1.2 kg/m3 | 5.769 ± 0.073 mPa·s | 865.9 ± 1.2 kg/m3 | 5.092 ± 0.065 mPa·s | 862.2 ± 1.2 kg/m3 | 4.525 ± 0.058 mPa·s | 858.5 ± 1.2 kg/m3 | 4.048 ± 0.052 mPa·s | 854.9 ± 1.2 kg/m3 | 3.641 ± 0.047 mPa·s | 851.3 ± 1.2 kg/m3 | 3.292 ± 0.042 mPa·s | 847.6 ± 1.2 kg/m3 | 2.99 ± 0.038 mPa·s | 844 ± 1.2 kg/m3 | viscosity (278.15 K): 10.39 ± 0.13 mPa·s; mass density (278.15 K): 880.5 ± 1.2 kg/m3; viscosity (333.15 K): 2.729 ± 0.035 mPa·s; mass density (333.15 K): 840.4 ± 1.2 kg/m3; viscosity (338.15 K): 2.502 ± 0.032 mPa·s; mass density (338.15 K): 836.8 ± 1.2 kg/m3; viscosity (343.15 K): 2.301 ± 0.03 mPa·s; mass density (343.15 K): 833.1 ± 1.2 kg/m3; viscosity (348.15 K): 2.124 ± 0.028 mPa·s; mass density (348.15 K): 829.5 ± 1.2 kg/m3; viscosity (353.15 K): 1.967 ± 0.026 mPa·s; mass density (353.15 K): 825.9 ± 1.2 kg/m3; viscosity (358.15 K): 1.827 ± 0.024 mPa·s; mass density (358.15 K): 822.3 ± 1.2 kg/m3; viscosity (363.15 K): 1.702 ± 0.022 mPa·s; mass density (363.15 K): 818.7 ± 1.2 kg/m3 |
| CCCCCCCCCC(=O)OCC [ethyl decanoate] | 2.896 ± 0.028 mPa·s | 872.5 ± 1 kg/m3 | 2.588 ± 0.025 mPa·s | 868.4 ± 1 kg/m3 | 2.326 ± 0.023 mPa·s | 864.3 ± 1 kg/m3 | 2.103 ± 0.021 mPa·s | 860.2 ± 1 kg/m3 | 1.911 ± 0.019 mPa·s | 856.2 ± 1 kg/m3 | 1.745 ± 0.017 mPa·s | 852.1 ± 1 kg/m3 | 1.6 ± 0.016 mPa·s | 848 ± 1 kg/m3 | 1.473 ± 0.015 mPa·s | 843.9 ± 1 kg/m3 | 1.36 ± 0.014 mPa·s | 839.8 ± 1 kg/m3 | 1.259 ± 0.013 mPa·s | 835.7 ± 1 kg/m3 | viscosity (333.15 K): 1.169 ± 0.012 mPa·s; mass density (333.15 K): 831.6 ± 1 kg/m3; viscosity (338.15 K): 1.089 ± 0.011 mPa·s; mass density (338.15 K): 827.5 ± 1 kg/m3; viscosity (343.15 K): 1.017 ± 0.011 mPa·s; mass density (343.15 K): 823.4 ± 1 kg/m3; viscosity (348.15 K): 0.9516 ± 0.01 mPa·s; mass density (348.15 K): 819.2 ± 1 kg/m3; viscosity (353.15 K): 0.8929 ± 0.0098 mPa·s; mass density (353.15 K): 815.1 ± 1 kg/m3 |
| CCCCCCCCCCCC(=O)OCC [ethyl dodecanoate] | 4.335 ± 0.041 mPa·s | 870.3 ± 1 kg/m3 | 3.813 ± 0.036 mPa·s | 866.4 ± 1 kg/m3 | 3.38 ± 0.032 mPa·s | 862.4 ± 1 kg/m3 | 3.015 ± 0.029 mPa·s | 858.5 ± 1 kg/m3 | 2.707 ± 0.026 mPa·s | 854.6 ± 1 kg/m3 | 2.446 ± 0.024 mPa·s | 850.7 ± 1 kg/m3 | 2.22 ± 0.022 mPa·s | 846.8 ± 1 kg/m3 | 2.024 ± 0.02 mPa·s | 842.9 ± 1 kg/m3 | 1.853 ± 0.018 mPa·s | 839 ± 1 kg/m3 | 1.704 ± 0.017 mPa·s | 835.1 ± 1 kg/m3 | viscosity (333.15 K): 1.57 ± 0.016 mPa·s; mass density (333.15 K): 831.1 ± 1 kg/m3; viscosity (338.15 K): 1.453 ± 0.015 mPa·s; mass density (338.15 K): 827.2 ± 1 kg/m3; viscosity (343.15 K): 1.349 ± 0.014 mPa·s; mass density (343.15 K): 823.3 ± 1 kg/m3; viscosity (348.15 K): 1.254 ± 0.013 mPa·s; mass density (348.15 K): 819.4 ± 1 kg/m3; viscosity (353.15 K): 1.171 ± 0.012 mPa·s; mass density (353.15 K): 815.4 ± 1 kg/m3 |
